{
  "source": "patent EP4349409A1",
  "about": "“COMPOUNDS FOR THE MANAGEMENT OF CELL STEMNESS AND INVASION IN CANCER AND RELATED DISEASES” (Instituto Biomar S.A., priority 2022, dated 2024)",
  "key": {"TAp73": {"tested_on": "TAp73", "assay": "Western blot of endogenous TAp73 protein in glioblastoma stem cells G144 and G179", "assay_type": "cell-based, human", "details": "G144 and G179, 72 h; BMT9 2.25 µM, TMZ 350 µM, BCNU 150 µM", "method": "To specifically address BMT9 effect on endogenous TAp73 protein levels, we performed a Western blot analysis using an anti-TA-specific antibody. Cells were treated for 72 h either with a low dose of BMT9 (2.25 µM), or with TMZ and BCNU at the standard concentrations used in other articles (350 µM and 150 µM, respectively). Protein extracts were obtained and analyzed by Western blot (Figure 4B-C) and densitometric quantification of the autoradiographies was carried out. The ratio of TAp73/GAPDH band intensity was calculated and protein expression levels relative to non-treated (NT) cells were represented (Y axis)."}, "[1]": {"assay": "Pharmacokinetics in plasma after intraperitoneal administration", "assay_type": "in vivo", "details": "female C57BL/6 mice, i.p. 100 mg/kg", "method": "(§1) The Maximum Tolerated Dose (MTD) and Pharmacokinetics (PK) of BMT9 were determined after intraperitoneal administration to female C57BL/6 (~25 g) mice.\n(§2) C57BL/6 female mice (9-13 weeks in age) were administered intraperitoneally with a single dose of BMT9 at 35, 50, 75, 100 or 200 mg/Kg. Total of 3 animals were used for each independent serial sampling experiment. The compound was dissolved in an appropriate vehicle (Cremophor:EtOH:H20 1:1:8). Body weight, distress and survival were monitored 1, 2, 4 hours and 8 hours post-administration and every day during the whole observation period. The MTD was set on the dose below the first dose that caused severe loss of body weight (>20%) or death of one or more animals of a dose group seven days after treatment. The MTD of BMT9 was therefore set on about […]. The concentrations of BMT9 in plasma was determined at different times per duplicate using a previously validated analytical method. The compound was injected via i.p at 100 mg/kg. Total of 3 animals were used for each independent serial sampling experiment. Blood samples were collected at 5, 15, 30 min, 1, 4, 10, 24, and 48 hours from each animal via cardiac puncture; […] withdrawn at each time point. 25 microliters of blood sample were then used for quantitative bioanalysis by HPLC-MS/MS. The fundamental pharmacokinetic parameters were obtained from the non-compartmental analysis using PK Solutions 2.0.2."}, "G144 cells": {"tested_on": "G144 cells", "assay": "Proliferation rate analysis by p-His-3 immunostaining in G144 cells", "assay_type": "cell-based, human", "details": "G144, 4.5 µM, 72 h (data not shown)", "excerpt": "It is noteworthy that G144 cells proliferate very slowly and, at maintenance culture conditions, about 90% of the cells are in G1 phase of the cell cycle (data not shown)."}, "[2]": {"tested_on": "transcript levels originated from the P1-TP73 promoter (TAp73, ΔEx2p73 and ΔEx2/3p73)", "assay": "qRT-PCR of P1-TP73 promoter transcripts in G144 cells", "assay_type": "cell-based, human", "details": "G144, 72 h, dose dependent", "excerpt": "As before, all isoforms were reduced by treatment, with TAp73 and ΔEx2/3p73 being the predominant isoforms, while ΔN'p73 was barely detected (Figure 4A). Ribosomal RNA 18S was used as housekeeping control, and all expression levels were normalized to the TAp73 NT value."}, "[3]": {"assay": "Maximum Tolerated Dose after intraperitoneal administration", "details": "mouse, in vivo, ip; female C57BL/6 mice, single intraperitoneal dose, seven days", "method": "as §1\nas §2, with “The fundamental pharmacokinetic parameters were obtained from the non-compartmental analysis using PK Solutions 2.0.2.” left out"}},
  "data": [
    {"smiles": "C=C1C2CCC(C)(C3COc4c(C)c(OC)c5c(c4C3O)C(O)OC5=O)C1CCC2(C)C", "note": "(stereo not shown) [BMT9]", "values": [
      {"measurement": "endogenous TAp73 protein levels (TAp73/GAPDH)", "setting": "TAp73", "result": "reduced effectively TAp73 expression"},
      {"measurement": "highest concentration in the plasma", "setting": "[1]", "result": 7611, "unit": "ng/mL"},
      {"measurement": "time at which plasma concentration reached the control levels post-administration", "setting": "[1]", "result": 24, "unit": "h"},
      {"measurement": "time of highest concentration in the plasma after injection", "setting": "[1]", "result": 4, "unit": "h"},
      {"measurement": "percentage of cells in mitosis", "setting": "G144 cells", "result": 0.1, "unit": "%"},
      {"measurement": "transcript levels originated from the P1-TP73 promoter (TAp73, ΔEx2p73 and ΔEx2/3p73)", "setting": "[2]", "result": "downregulated"},
      {"measurement": "MTD at 168 h", "setting": "[3]", "result": "~140", "unit": "mg/kg"}
    ]}
  ]
}
